Reference: US5861405A, “S-substituted 1,3,7-trialkyl-xanthine derivatives” (priority 1994, dated 1999)
Values after ≈ are worked out from the molar mass of the structure shown. Values joined by “and” are separate entries in the source; they are usually repeats but may differ in a detail not shown here. Equal values may be shown once. Read-outs that look alike come from different tables or passages of the source.

How the values were obtained:
[1] = system: locomotor activity in mice; assay: Locomotor activity in mice, open field (Digiscan activity monitor); assay type: in vivo, mouse
Description: Adult male mice of the NIH (Swiss) strain weighing 25-30 g were housed in groups of 10 animals per cage with a light-dark cycle of 12:12 h. The animals were given free access to standard pellet food and water and were acclimatized to laboratory conditions for 24 h prior to testing. Each animal was used only once in the activity monitor.
Locomotor activity of individual animals was studied in an open field using a Digiscan activity monitor (Omnitech Electronics Inc., Columbus, Ohio) equipped with an IBM-compatible computer. The computer-tabulated measurements represent multivariate locomotor analysis with specific measures, such as simultaneous measurements of ambulatory, rearing, stereotypical, and rotational behaviors. Data were collected in the morning, for three consecutive intervals of 10 minutes each, and analyzed separately and as a group. Statistical analysis was performed using the Student t test. […] Drugs were administered i.p. in a volume corresponding to 5 ml/kg body weight. Where applicable, the antagonist was injected 10 minutes before the agonist. ED50 values were determined using regression analysis on the InPlot software (GraphPAD, San Diego, Calif.).

[2] = biological target: T1, rat A1 cortical receptors (Rattus norvegicus, UniProt P25099); assay: Radioligand binding, [3H]N6-phenylisopropyladenosine ([3H]PIA), rat cortical A1 receptors; conditions: for Ki: vs [3H]PIA (1 nM), read-out: Ki (A1); for inhibition at 10 µM: 1.5 h, at 10^-5, vs [3H]PIA, read-out: Percent displacement of specific binding (A1)
T1 construct: Rat cerebral cortical membranes and striatal membranes were prepared; from tissue; host or cells: rat cerebral cortex membranes
T1 sequence (P25099 1-326): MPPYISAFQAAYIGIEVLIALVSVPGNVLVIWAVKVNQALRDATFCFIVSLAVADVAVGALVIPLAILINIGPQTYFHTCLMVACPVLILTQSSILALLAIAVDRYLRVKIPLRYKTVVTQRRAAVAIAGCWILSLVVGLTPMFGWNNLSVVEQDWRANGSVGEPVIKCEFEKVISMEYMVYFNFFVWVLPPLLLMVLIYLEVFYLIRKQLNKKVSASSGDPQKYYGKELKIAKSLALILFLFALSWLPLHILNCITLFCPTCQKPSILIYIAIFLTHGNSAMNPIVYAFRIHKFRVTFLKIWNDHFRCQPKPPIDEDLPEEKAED
Description: (§1) The 1,3,7-trialkyl-8-substituted xanthine compounds of the present invention were tested in a radioligand binding assay for affinity at adenosine receptors in rat brain membranes.
The final concentration of DMSO in the assay medium was generally 2%.
Membranes (~100 μg protein per tube) were incubated for 1.5 h at 37° C. in a total volume of 0.5 ml of 50 mM Tris hydrochloride, at pH 7.4. Test drugs were dissolved in DMSO and added in 10 μl aliquots, resulting in a final DMSO concentration of 2%. Bound and free radioligand were separated by addition of 3 ml of a buffer containing 50 mM Tris hydrochloride, pH 7.4, at 5° C., followed by vacuum filtration using a Brandel Cell Harvester (Brandel, Gaithersburg, Md.) and a Whatman GF/B glass fiber filter with additional washes totaling 9 ml of buffer. Non-specific binding was determined with 10 μM 2-chloroadenosine.
(§2) At least six different concentrations spanning three orders of magnitude, adjusted appropriately for the IC50 of each compound, were used.

[3] = Aqueous solubility; conditions: for solubility kinetic: water, 0.5% dmso, organic solvent or mixture
Description: To avoid precipitation associated with serial aqueous dilutions, the only point at which DMSO was added to aqueous medium was immediately prior to the incubation.

[4] = biological target: rat striatal A2a receptors (Rattus norvegicus, UniProt P30543); assay: Radioligand binding, [3H]CGS 21680, rat striatal A2a receptors; parameters: Rat cerebral cortical membranes and striatal membranes were prepared; from tissue; host or cells: rat striatal membranes; conditions: for A2-selectivity: rat brain binding, this study
Sequence of rat striatal A2a receptors (P30543 whole entry): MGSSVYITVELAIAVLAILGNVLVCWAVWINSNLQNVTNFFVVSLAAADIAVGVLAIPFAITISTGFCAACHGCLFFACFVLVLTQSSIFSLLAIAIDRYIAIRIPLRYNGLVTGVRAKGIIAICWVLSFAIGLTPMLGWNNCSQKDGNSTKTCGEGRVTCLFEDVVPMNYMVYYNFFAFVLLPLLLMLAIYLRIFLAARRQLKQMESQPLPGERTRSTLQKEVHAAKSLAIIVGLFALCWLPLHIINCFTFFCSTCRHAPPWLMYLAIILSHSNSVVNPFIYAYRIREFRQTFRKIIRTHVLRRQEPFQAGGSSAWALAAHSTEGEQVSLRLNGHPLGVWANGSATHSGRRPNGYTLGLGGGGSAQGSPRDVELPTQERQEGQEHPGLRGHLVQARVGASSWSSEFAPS
Description: as §1
The stock solutions were diluted with DMSO to a concentration of ≥0.1 mM prior to adding to the aqueous medium. The final concentration of DMSO in the assay medium was generally 2%.
Test drugs were dissolved in DMSO and added in 10 μl aliquots, resulting in a final DMSO concentration of 2%. Non-specific binding was defined using 20 μM 2-chloroadenosine. Filtration was carried out using a Brandel Cell Harvester, as above, using Tris HCl/MgCl2 as the washing buffer.
as §2

[5] = biological target: A2 receptors, rat striatum; conditions: vs [3H]NECA in rat striatum; read-out: Ki (A2a), Shimada et al.; cited from earlier work
[6] = Ki value / affinity at A2 receptors
[7] = Table I, vs [3H]CGS21680 (5 nM), rat striatal A2 receptors, read-out: Ki (A2a)
[8] = vs [3H]CGS 21680, read-out: Ki value / affinity at A2 receptors
[9] = Table IV, vs [3H]CGS21680 (5 nM), read-out: Ki (A2)
[10] = Table III, vs [3H]CGS21680 (5 nM), read-out: Ki (A2)

SMILES | Ki ([2]; Table I, rat A1 receptors) [nM] | A1/A2a ratio ([4]; Table I, ratio of Ki values) | Ki [4, 7] [nM] | further results
OC[C@H]1O[C@@H](n2cnc3c(NC4CCCCC4)ncnc32)[C@H](O)[C@@H]1O [CHA, N^6 -cyclohexyladenosine, reference compound] |  |  |  | total distance traveled ([1]; CHA control 100 μg/kg i.p., n=9): 2090±438 cm/30 min; ED50 ([1]; Mus musculus, ip, CHA, i.p., read-out: ED50 for locomotor depression): 0.1 mg/kg
CCCn1c(=O)c2[nH]c(C3CCCC3)nc2n(CCC)c1=O [CPX, 8-cyclopentyl-1,3-dipropyl-xanthine, reference compound] |  |  |  | locomotor stimulation, in words ([1]; mice): minimal depressant effect on locomotor activity
Cn1c(=O)c2c(nc(/C=C/c3cccc(NC(=O)CCC(=O)O)c3)n2C)n(C)c1=O [Compound 24, 1,3,7-Trimethyl-8-(3-succinylaminostyryl)xanthine] | 35100 | 250 | 143 ± 45 | solubility ([3]; 0.1 m k2hpo4): 19 mM (≈ 7820 µg/mL); solubility ([3]; 0.1 m potassium phosphate, pH 7.4): 19 mM (≈ 7820 µg/mL); Ki [4, 6]: 134 nM
COc1cc(/C=C/c2nc3c(c(=O)n(C)c(=O)n3C)n2C)cc(OC)c1OC(C)=O [Compound 36] | 6330 | 93 | 68 ± 22 | A2-selectivity [4]: 93 fold
COc1cc(/C=C/c2nc3c(c(=O)n(C)c(=O)n3C)n2C)cc(OC)c1OCc1ccccc1 [Compound 37, 1,3,7-Trimethyl-8-(3,5-dimethoxy-4-benzyloxystyryl) xanthine] | 4120 | 30 | 139 ± 7 | 
COc1cc(/C=C/c2nc3c(c(=O)n(C)c(=O)n3C)n2C)cc(OC)c1OCCCCN [Compound 38, 1,3,7-Trimethyl-8-[3,5-dimethoxy-4-[4-aminobutyloxy]styryl]xanthine] | 6170 | 36 | 173 ± 43 | 
COc1cc(/C=C/c2nc3c(c(=O)n(C)c(=O)n3C)n2C)cc(OC)c1OCCCCNC(=O)OC(C)(C)C [Compound 39, 1,3,7-Trimethyl-8-[3,5-dimethoxy-4-[4-(tert-butyloxycarbonylamino)butyloxy]styryl]xanthine] | 11000 | 42 | 265 ± 105 | 
COc1cc(/C=C/c2nc3c(c(=O)n(C)c(=O)n3C)n2C)cc(OC)c1OC/C=C/CN [Compound 40] | 6280 | 28 | 228 ± 20 | 
COc1cc(/C=C/c2nc3c(c(=O)n(C)c(=O)n3C)n2C)cc(OC)c1OC/C=C/CNC(C)=O [Compound 41] |  | > 50 | 216 ± 40 | inhibition at 10 µM [2]: 17 ± 7%
COc1cc(/C=C/c2nc3c(c(=O)n(C)c(=O)n3C)n2C)cc(OC)c1OC/C=C/CNC(=O)OC(C)(C)C [Compound 42] |  | > 40 | 353 ± 62 | inhibition at 10 µM [2]: 11 ± 5%
COc1ccc(/C=C/c2nc3c([nH]2)c(=O)n(C)c(=O)n3C)c(OC)c1OC [Compound 43a] |  | > 5 | 1610 | inhibition at 10 µM [2]: 26 ± 10%
COc1ccc(/C=C/c2nc3c(c(=O)n(C)c(=O)n3C)n2C)c(OC)c1OC [Compound 43b] | 6920 | 34 | 206 ± 81 | 
CCn1c(/C=C/c2cc(OC)c(OC)c(OC)c2)nc2c1c(=O)n(C)c(=O)n2C [Compound 44c, 7-Ethyl-1,3-trimethyl-8-[3,4,5-trimethoxystyryl]xanthine] | 6290 | 7.1 | 882 ± 239 | 
COc1cc(/C=C/c2nc3c(c(=O)n(C)c(=O)n3C)n2CCO)cc(OC)c1OC [Compound 44d] |  |  |  | inhibition at 10 µM [2]: 26 ± 9%; inhibition at 10 µM ([4]; 1 h, at 10^-5, vs [3H]CGS21680, read-out: Percent displacement of specific binding (A2a)): 22%
C#CCn1c(/C=C/c2cc(OC)c(OC)c(OC)c2)nc2c1c(=O)n(C)c(=O)n2C [Compound 44e] | 4040 | 7.7 | 525 ± 220 | 
CCn1c(=O)c2[nH]c(/C=C/c3cc(OC)c(OC)c(OC)c3)nc2n(CC)c1=O [Compound 45a] | 852 ± 277 | 3.2 | 269 ± 7 | 
CCCn1c(=O)c2c(nc(/C=C/c3cccc([N+](=O)[O-])c3)n2C)n(CCC)c1=O [Compound 48] | 272 ± 68 | 4.8 | 56.2 ± 6.8 | 
CCCn1c(=O)c2c(nc(/C=C/c3cccc(N)c3)n2C)n(CCC)c1=O [Compound 49] | 113 ± 21 | 6.0 | 18.9 ± 5.3 | Ki [4, 8]: ≤ 50 nM

SMILES | Ki ([2]; Table I, rat A1 receptors) [nM] | A1/A2a ratio ([4]; Table I, ratio of Ki values) | Ki [4, 7] [nM] | further results
CCCn1c(=O)c2[nH]c(/C=C/c3cccc(F)c3)nc2n(CCC)c1=O [Compound 50a] | 78 ± 17 | 0.51 | 153 ± 31 | 
CCCn1c(=O)c2c(nc(/C=C/c3cccc(F)c3)n2C)n(CCC)c1=O [Compound 50b] | 301 ± 64 | 9.1 | 33 ± 15 | Ki [4, 8]: ≤ 50 nM
CCCn1c(=O)c2[nH]c(/C=C/c3cccc(Cl)c3)nc2n(CCC)c1=O [Compound 51a] | 167 ± 39 | 0.77 | 216 ± 66 | 
CCCn1c(=O)c2c(nc(/C=C/c3ccc(OC)c(OC)c3)n2C)n(CCC)c1=O [Compound 52b] | 577 ± 42 |  |  | Ki [5]: 7.8 nM
CCCn1c(=O)c2[nH]c(/C=C/c3cc(OC)cc(OC)c3)nc2n(CCC)c1=O [Compound 53a] | 632 ± 152 | 3.0 | 210 ± 140 | 
CCCn1c(=O)c2c(nc(/C=C/c3cc(OC)cc(OC)c3)n2C)n(CCC)c1=O [Compound 53b, 1,3-Dipropyl-7-methyl-8-(3,5-dimethoxystyryl)xanthine] | 2630 | 110 | 24 ± 6 | apparent A1 affinity versus DMSO concentration ([2]; 0.5 and 1% DMSO): somewhat dependent on DMSO concentration; solubility kinetic ([3]; concentration above which compound did not remain dissolved): 0.01 mM (≈ 4.12 µg/mL); solubility kinetic ([3]; theoretical concentration beyond which UV absorption decreases (supersaturation)): 0.02 mM (≈ 8.25 µg/mL); selectivity relative to 52b [4]: 5 fold; apparent affinity at A2 receptors versus DMSO concentration ([4]; 0.5% to 6% DMSO): constant within the range of 0.5% to 6% DMSO; Ki [4, 6]: 24 nM and ≤ 50 nM; A2-selectivity [4]: 110 fold
CCCn1c(=O)c2[nH]c(/C=C/c3cc(F)cc(F)c3)nc2n(CCC)c1=O [Compound 54a] | 146 ± 25 | 0.42 | 346 ± 97 | 
CCCn1c(=O)c2c(nc(/C=C/c3cc(F)cc(F)c3)n2C)n(CCC)c1=O [Compound 54b] | 382 ± 40 | 7.2 | 53 ± 15 | Ki [4, 8]: ≤ 50 nM
CCCn1c(=O)c2[nH]c(/C=C/c3ccc(OC)c(OC)c3OC)nc2n(CCC)c1=O [Compound 55a] | 97 ± 19 | 1.5 | 64 ± 15.6 | 
CCCn1c(=O)c2c(nc(/C=C/c3ccc(OC)c(OC)c3OC)n2C)n(CCC)c1=O [Compound 55b] | 379 ± 128 | 5.5 | 68.5 ± 12.6 | 
CCCn1c(=O)c2[nH]c(/C=C/c3cc(OC)c(OC)cc3OC)nc2n(CCC)c1=O [Compound 56a] | 143 ± 19 | 0.44 | 323 ± 74 | 
CCCn1c(=O)c2c(nc(/C=C/c3cc(OC)c(OC)cc3OC)n2C)n(CCC)c1=O [Compound 56b] | 689 ± 239 |  | 327 ± 52 | A1/A2a ratio ([4]; rat, brain membranes): 2.1
Cn1c(=O)c2c(nc(CCc3cccc(N)c3)n2C)n(C)c1=O [Compound 57, 1,3,7-Trimethyl-8-[2-(3-aminophenyl)ethyl]xanthine] |  |  |  | inhibition at 10 µM [2]: 15%; fold less potent at A2 receptors than 22b [4]: ~ 300 fold; Ki [4, 9]: 18000 nM
COc1cccc2cc(-c3nc4c([nH]3)c(=O)n(C)c(=O)n4C)oc12 [Compound 58a] |  |  |  | Ki ([2]; Table IV): 1700 nM; A1/A2 ratio ([4]; Table IV): 0.5; Ki [4, 9]: 3900 nM
Cn1c(=O)c2c(ncn2C)n(C)c1=O [caffeine, 1,3,7-trimethylxanthine, reference compound] |  |  |  | Behavioral stimulation ([1]; mouse, in vivo, ip): +++
CCC/C=C/c1nc2c(c(=O)n(C)c(=O)n2C)n1C [n-propyl(Rβ = H)] |  |  |  | Ki ([2]; Table III): 6000 nM; A1/A2 ratio ([4]; Table III): 3.8; Ki [4, 10]: 1600 nM
C/C(=C\c1nc2c(c(=O)n(C)c(=O)n2C)n1C)c1ccccc1 [phenyl (Rβ = Me)] |  |  |  | Ki ([2]; Table III): 8680 nM; A1/A2 ratio ([4]; Table III): 6; Ki [4, 10]: 1420 nM
